This is an account of results in patent publication US11584714B2 (priority 2018, dated 2023).

Broadly, the Ki is a measure of affinity in units of concentration, obtained from inhibition or displacement.

Structures can show the parent of a compound that is named as a salt.

Chain of MASP-2 (CCP1-CCP2-SP) (O00187 445-686): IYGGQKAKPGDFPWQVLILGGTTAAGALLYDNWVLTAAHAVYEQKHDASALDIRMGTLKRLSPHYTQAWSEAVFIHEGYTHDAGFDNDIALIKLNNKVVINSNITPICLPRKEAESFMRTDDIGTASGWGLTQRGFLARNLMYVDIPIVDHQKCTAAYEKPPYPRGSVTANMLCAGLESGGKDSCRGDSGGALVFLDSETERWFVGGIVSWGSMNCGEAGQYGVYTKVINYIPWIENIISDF

One assay has as its target MASP-2 (CCP1-CCP2-SP) (Homo sapiens (Human), UniProt O00187). Briefly: biochemical. Type of assay: biochemical.
Conditions: not given
For `N=C(N)c1ccc2[nH]c(-c3nc4ccccc4[nH]3)nc2c1` [compound 2009, 1H,1′H-[2,2′-bibenzo[d]imidazole-5-carboximidamidedihydrochloride], the Ki was over 25000 nM.

The same assay, now with this note: +Zn; read-out: MASP-2 Ki.
For the compound `N=C(N)c1ccc2[nH]c(-c3nc4ccccc4[nH]3)nc2c1` [compound 2009, 1H,1′H-[2,2′-bibenzo[d]imidazole-5-carboximidamidedihydrochloride], the Ki is under 500 nM.

Still in this assay, the particulars now being: MASP-2 inhibition versus thrombin.
For `C[C@H](NC(=O)[C@H](N)CCc1ccccc1)C(=O)NCc1ccc(C(=N)N)cc1` [compound 1024], the “MASP-2 vs. thrombin selectivity” value was “** (5.0 to 25-fold)”.

`C[C@H](NC(=O)[C@H]1Cc2c([nH]c3ccccc23)CN1)C(=O)NCc1ccc(C(=N)N)cc1` [compound 1097]: the “MASP-2 vs. thrombin selectivity” value is “*** (25 to 100-fold)”.

`C[C@H](NC(=O)[C@H](N)CCc1cc(Cl)cc(Cl)c1)C(=O)NCc1ccc(C(=N)N)cc1` [compound 1118]: the “MASP-2 vs. thrombin selectivity” value is “** (5.0 to 25-fold)”.

For the compound `C[C@H](NC(=O)[C@@H](CCc1ccccc1)NCc1ccc(C(=O)N2CCOCC2)cc1)C(=O)NCc1ccc(C(=N)N)cc1` [compound 1153], the “MASP-2 vs. thrombin selectivity” value was “**** (>100-fold)”.

`C[C@H](NC(=O)[C@H](N)CCc1cccc(Cl)c1)C(=O)NCc1ccc(C(=N)N)cc1` [compound 1081]: the “MASP-2 vs. thrombin selectivity” value was “** (5.0 to 25-fold)”.

Still in this assay, the particulars now being: read-out: MASP-2 Ki.
Take `C[C@H](NC(=O)[C@H]1C=C(c2ccccc2)CN1)C(=O)NCc1ccc(C(=N)N)cc1` [compound 1032]: the Ki is under 500 nM.

Take `C[C@H](NC(=O)[C@@H](CCc1ccccc1)NCc1ccc(N2CCNCC2)cc1)C(=O)NCc1ccc(C(=N)N)cc1` [compound 1148, (R)—N—((S)-1-((4-Carbamimidoylbenzyl)amino)-1-oxopropan-2-yl)-4-phenyl-2-((4-(piperazin-1-yl)benzyl)amino)butanamide]: the Ki is under 500 nM.

As for `N=C(N)c1ccc(CNC(=O)C(CF)NC(=O)[C@H](N)CCc2ccccc2)cc1` (stereo partly drawn) [compound 1050, (2R)-2-Amino-N-(1-((4-carbamimidoylbenzyl)amino)-3-fluoro-1-oxopropan-2-yl)-4-phenylbutanamide Dihydrochloride], the Ki is under 500 nM.

Consider `C[C@H](NC(=O)[C@H](N)CCc1ccccc1)C(=O)NCc1cccc(Cl)c1` [compound 1021], for which the Ki is under 10000 nM.

Take `N[C@H](CCc1ccccc1)C(=O)N1CCC[C@H]1C(=O)NCc1cc(Cl)ccc1O` [compound 1079, (S)-1-((R)-2-Amino-4-phenylbutanoyl)-N-(5-chloro-2-hydroxybenzyl)pyrrolidine-2-carboxamide]: the Ki was under 500 nM.

For `Cc1ccc(-c2c[nH]c(C(=O)N[C@@H](C)C(=O)NCc3ccc(C(=N)N)cc3)c2)cc1F` [compound 1235, (S)—N-(1-((4-Carbamimidoylbenzyl)amino)-1-oxopropan-2-yl)-4-(3-fluoro-4-methylphenyl)-1H-pyrrole-2-carboxamide], the Ki is under 500 nM.

Regarding `C[C@H](NC(=O)[C@H](N)CCc1ccc(C(F)(F)F)cc1)C(=O)NCc1ccc(C(=N)N)cc1` [compound 1119, (R)-2-Amino-N—((S)-1-((4-carbamimidoylbenzyl)amino)-1-oxopropan-2-yl)-4-(4-(trifluoromethyl)phenyl)butanamide Dihydrochloride], the Ki was under 500 nM.

The assay is the same for the next values; noted with them: selectivity for MASP-2 inhibition versus thrombin.
For the compound `COc1cc(C[C@@H]2CN[C@@H](C(=O)N[C@@H](C)C(=O)NCc3cc(Cl)ccc3-n3cnnn3)C2)cc(OC)c1` [compound 1419, (2R,4S)—N—((S)-1-((5-Chloro-2-(JH-tetrazol-1-yl)benzyl)amino)-1-oxopropan-2-yl)-4-(3,5-dimethoxybenzyl)pyrrolidine-2-carboxamide Trifluoroacetate salt], the “MASP-2 vs. thrombin selectivity” value was “* (≥1.0 to <5.0-fold)”.

In the case of `C[C@H](NC(=O)[C@H](N)CCc1ccccc1)C(=O)NCc1cc(Cl)ccc1C#N` [compound 1313, Trifluoroacetate salt], the “MASP-2 vs. thrombin selectivity” value is reported as “* (≥1.0 to <5.0-fold)”.

Consider `Cc1ccc(-c2c[nH]c(C(=O)N[C@@H](C)C(=O)NCc3ccc(C(=N)N)cc3)c2)cc1F` [compound 1235, (S)—N-(1-((4-Carbamimidoylbenzyl)amino)-1-oxopropan-2-yl)-4-(3-fluoro-4-methylphenyl)-1H-pyrrole-2-carboxamide], for which the “MASP-2 vs. thrombin selectivity” value is recorded as “*** (≥25 to <100-fold)”.

For another assay, the target named is human α-thrombin (Homo sapiens (Human), UniProt P00734). Briefly: Enzymatic assay for thrombin (Boc-VPR-AMC substrate). The format is biochemical. Conditions: Zn/EDTA condition not given; read-out: Thrombin Ki.
As for `CCCCn1c(=O)c2ccccc2n(CC(=O)Nc2ccc(NC(C)=O)cc2)c1=O` [compound 2020], the Ki was over 25000 nM.

As for `CNC(=O)c1ccc2c(=O)n(Cc3ccccc3)c(=O)n(CC(=O)NCc3ccc(C(=N)N)cc3)c2c1` [compound 2018, 3-Benzyl-1-(2-((4-carbamimidoylbenzyl)amino)-2-oxoethyl)-N-methyl-2,4-dioxo-1,2,3,4-tetrahydroquinazoline-7-carboxamide], the inhibition constant Ki was over 25000 nM.

In the case of `N=C(N)c1ccc(CNC(=O)Cn2c(=O)n(Cc3ccccc3)c(=O)c3ccc(C(=O)NC4CCCCC4)cc32)cc1` [compound 2021, 3-Benzyl-1-(2-((4-carbamimidoylbenzyl)amino)-2-oxoethyl)-N-cyclohexyl-2,4-dioxo-1,2,3,4-tetrahydroquinazoline-7-carboxamide], the Ki was over 25000 nM.

On to `CCCCCn1c(=O)c2ccccc2n(CC(=O)Nc2ccc(NC(C)=O)cc2)c1=O` [compound 2019], for which the Ki is over 25000 nM.

Regarding `N=C(N)c1ccc(CNC(=O)Cn2c(=O)n(Cc3ccccc3)c(=O)c3ccc(C(N)=O)cc32)cc1` [compound 2017, ((4-((2-(3-Benzyl-7-carbamoyl-2,4-dioxo-3,4-dihydroquinazolin-1(2H)-yl)acetamido)methyl)phenyl)(imino)methyl)-λ^5-azaneyl Acetate], the Ki is over 25000 nM.

The assay is the same for the next values; noted with them: read-out: Thrombin Ki.
On to `N=C(N)c1ccc(CNC(=O)[C@@H]2CCN2C(=O)[C@H](NCC(N)=O)C2CCCCC2)cc1` [compound 1102, (S)-1-((R)-2-((2-amino-2-oxoethyl)amino)-2-cyclohexylacetyl)-N-(4-carbamimidoylbenzyl)azetidine-2-carboxamide], for which the Ki was under 500 nM.

Take `N=C(N)NCCCNC(=O)[C@@H]1CCN1C(=O)[C@H](N)C1CCCCC1` [compound 1004, (S)-1-((R)-2-Amino-2-cyclohexylacetyl)-N-(3-guanidinopropyl)azetidine-2-carboxamide Hydrochloride]: the inhibition constant Ki was under 500 nM.

In the case of `CC(=O)N[C@@H](C(=O)N1CC[C@H]1C(=O)NCc1ccc(C(=N)N)cc1)C1CCCCC1` [compound 1077], the Ki was under 500 nM.

Take `CC(C)(C)[C@@H](N)C(=O)N1CC[C@H]1C(=O)NCc1ccc(C(=N)N)cc1` [compound 1005]: the Ki is under 500 nM.

Consider `C[C@H](NC(=O)[C@H]1C[C@@H](c2ccccc2)CN1)C(=O)NCc1ccc(N)nc1` [compound 1255, (2R,4S)—N—((S)-1-(((6-Aminopyridin-3-yl)methyl)amino)-1-oxopropan-2-yl)-4-phenylpyrrolidine-2-carboxamide], for which the Ki was over 25000 nM.

As for `N=C(N)c1ccc(CNC(=O)[C@@H]2CCN2C(=O)[C@H]2CC3CCCCC3N2)cc1` (some centres unmarked) [compound 1026], the Ki is under 500 nM.

In the case of `CC(C)N(CC(=O)NCc1ccc(C(=N)N)cc1)C(=O)[C@H](NCC(=O)O)C1CCCCC1` [compound 1117], the Ki was under 500 nM.

On to `C[C@H](NC(=O)[C@H](N)CCc1ccc(F)cc1)C(=O)NCc1ccc(C(=N)N)cc1` [compound 1047], for which the Ki was under 500 nM.

Turning to `N=C(N)c1ccc(CNC(=O)[C@@H]2CCN2C(=O)[C@H](N)C2CC2)cc1` [compound 1002, (S)-1-((R)-2-Amino-2-cyclopropylacetyl)-N-(4-carbamimidoylbenzyl)azetidine-2-carboxamide], the Ki was under 500 nM.

Turning to `N=C(N)c1ccc(CNC(=O)[C@H]2CCCCN2C(=O)[C@H](NCC(=O)O)C2CCCCC2)cc1` [compound 1154], the Ki was under 500 nM.

Turning to `C[C@H](NC(=O)[C@H]1C[C@H](c2ccccc2)CN1)C(=O)NCc1ccc(N)nc1` [compound 1012], the Ki was over 25000 nM.

As to `N=C(N)c1ccc(CNC(=O)[C@@H]2CCN2C(=O)[C@H](NCC(=O)O)c2ccccc2)cc1` [compound 1100], the Ki is under 500 nM.

With `C[C@H](NC(=O)[C@H]1C[C@H](c2ccccc2)CN1)C(=O)NCc1ccc(C(=N)NO)cc1` [compound 1070], the Ki was over 25000 nM.

With `Cc1cc(N)nc(C)c1CNC(=O)[C@H](C)NC(=O)[C@H](N)CCc1ccccc1` [compound 1213], the Ki is over 25000 nM.

For `CC[C@H](NC(=O)[C@H](NCC(=O)O)C1CCCCC1)C(=O)NCc1ccc(C(=N)N)cc1` [compound 1106], the Ki was under 500 nM.

On to `C[C@H](NC(=O)[C@H](N)CCc1ccccc1)C(=O)NCc1ccc(CN)cc1` [compound 1014], for which the Ki was over 25000 nM.

For the compound `C[C@H](NC(=O)[C@H](N)CCc1ccccc1)C(=O)NCCCCNC(=N)N` [compound 1010], the Ki is over 25000 nM.

For the compound `CCOC(=O)NC(=N)c1ccc(CNC(=O)[C@H](C)NC(=O)[C@H]2C[C@H](c3ccccc3)CN2)cc1` [compound 1294, Ethyl (imino(4-(((S)-2-((2R,4R)-4-phenylpyrrolidine-2-carboxamido)propanamido)methyl)phenyl)methyl)carbamate], the Ki was over 25000 nM.

In the case of `Cc1nc(N)ccc1CNC(=O)[C@H](C)NC(=O)[C@H]1C[C@@H](c2cccc(CN)c2)CN1` [compound 1291, (2R,4S)—N—((S)-1-(((6-Amino-2-methylpyridin-3-yl)methyl)amino)-1-oxopropan-2-yl)-4-(3-(aminomethyl)phenyl)pyrrolidine-2-carboxamide], the Ki was over 25000 nM.

In the case of `CC(C)(C)OC(=O)N[C@@H](C(=O)N1CCC[C@H]1C(=O)NCc1ccc(C(=N)N)cc1)C1CCCCC1` [compound 1138], the Ki was under 500 nM.

For the compound `CN(CC(=O)NCc1ccc(C(=N)N)cc1)C(=O)[C@H](NCC(=O)O)C1CCCCC1` [compound 1096], the Ki was under 500 nM.

On to `N=C(N)c1ccc(CNC(=O)[C@@H]2CCN2C(=O)[C@H](N)CC2CCCCC2)cc1` [compound 1158], for which the Ki was under 500 nM.

Consider `N=C(N)c1ccc(CNC(=O)[C@@H]2CCN2C(=O)[C@H]2CCCN2)cc1` [compound 1003], for which the Ki is under 500 nM.

In the case of `C[C@H](NC(=O)[C@H](N)CCc1ccccc1)C(=O)NCc1ccc(C(=N)NO)cc1` [compound 1157, (R)-2-Amino-N—((S)-1-((4-(N-hydroxycarbamimidoyl)benzyl)amino)-1-oxopropan-2-yl)-4-phenylbutanamide Dihydrochloride], the Ki is over 25000 nM.

On to `C[C@H](NC(=O)[C@H](N)CCc1ccccc1)C(=O)NCc1cc(Cl)ccc1Cl` [compound 1192], for which the Ki is over 25000 nM.
